This passage reports IC50 results from US20250136577A1, “HETEROCYCLIC DERIVATIVES AS MALT1 INHIBITORS” (C4X Discovery Limited, priority 2022, published 2025).

In assay [1] the target is MALT1-GS-Ub (6-His-hMALT-1 residues 339-715 fused to ubiquitin) (Homo sapiens (Human), UniProt Q9UDY8). Briefly: MALT1 Protease Assay 1 (Assay 1), cleavage of fluorogenic tetrapeptide substrate. Type of assay: biochemical. Conditions: MALT1-GS-Ub 300-600 nM, Ac-LVSR-AMC 100 μM, 30 min preincubation, 60 min read. In a few lines: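 E. coli-expressed MALT1-GS-Ub (300–600 nM) preincubated 30 min at room temperature with compound (1% DMSO final), then Ac-LVSR-AMC (100 μM) added in 50 mM HEPES pH 7.0, 25 mM KCl, 0.1% CHAPS, 1 mM TCEP. Fluorescence (ex 360/em 460 nm) change over 60 min gave % inhibition versus no-enzyme and no-compound controls; IC50 from 4-parameter fit.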

Assay [2] concerns the target FL hMALT1 enzyme (Homo sapiens (Human), UniProt Q9UDY8). Briefly: MALT1 Protease Assay 2 (Assay 2), higher sensitivity, cleavage of fluorogenic tetrapeptide substrate. Type of assay: biochemical. Particulars: FL hMALT1 1-10 nM, Ac-LVSR-AMC 100 μM, 0.7 M sodium citrate, 30 min preincubation, 60 min read. The gist of the method: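 After 30 min room-temperature preincubation with compound (1% DMSO), enzyme (1-10 nM) cleaved 100 μM Ac-LVSR-AMC in pH 7.0 HEPES buffer containing 0.7 M sodium citrate, CHAPS and TCEP. Fluorescence (ex 360/em 460 nm) signal was taken as 60 min minus time 0. IC50 came from 4-parameter fits of % inhibition.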

Assay [3] concerns IL-2 release from stimulated Jurkat cells. Description: Human IL-2 Release Phenotypic Assay (Assay 3). The format is cell-based. Particulars: Jurkat cells (clone E6-1), 200 ng/ml PMA + 300 ng/ml ionomycin, IL-2 in supernatant by ELISA. How it is done:
Human IL-2 Release Phenotypic Assay (Assay 3)
This assay measured the inhibition by MALT1 inhibitors of the IL-2 release from stimulated Jurkat cells, a human immortalized T lymphocyte cell line. IL-2 production from Jurkat cells is regulated by activation of NFκB signalling, which is in turn regulated by MALT1 protease activity.
Jurkat cells (clone E6-1, ATCC) were cultured in RPMI1640 supplemented with 10% (v/v) FBS and 1% (v/v) penicillin/streptomycin (100× liquid stocks). Cells were seeded in 96-well white tissue culture-treated plates (Perkin Elmer) at 50 000 cells/well and incubated overnight at 37° C., 5% CO2. Test compounds in DMSO at half-log dilutions were added to the cells and incubated for 30 mins. Final DMSO concentration was 0.5%. Cells were then stimulated with 200 ng/ml PMA+300 ng/ml ionomycin and incubated for 48 hours. IL-2 present in the supernatant was then measured by ELISA according to the kit instructions (ELISA MAX Deluxe Set Human IL-2, BioLegend). % inhibition was calculated for each well, using 30 μM of the commercially available MALT1 inhibitor, MLT-748, for 100% inhibition controls and no compound for 0% inhibition controls. IC50 values were calculated using GraphPad Prism using 4-parameter non-linear regression curve fit.
A general note: In an ELISA, binding on a coated surface is turned into a signal by an enzyme label.

Sequence of MALT1-GS-Ub (6-His-hMALT-1 residues 339-715 fused to ubiquitin) (Q9UDY8 other isoform, or with tags, fused parts or gaps): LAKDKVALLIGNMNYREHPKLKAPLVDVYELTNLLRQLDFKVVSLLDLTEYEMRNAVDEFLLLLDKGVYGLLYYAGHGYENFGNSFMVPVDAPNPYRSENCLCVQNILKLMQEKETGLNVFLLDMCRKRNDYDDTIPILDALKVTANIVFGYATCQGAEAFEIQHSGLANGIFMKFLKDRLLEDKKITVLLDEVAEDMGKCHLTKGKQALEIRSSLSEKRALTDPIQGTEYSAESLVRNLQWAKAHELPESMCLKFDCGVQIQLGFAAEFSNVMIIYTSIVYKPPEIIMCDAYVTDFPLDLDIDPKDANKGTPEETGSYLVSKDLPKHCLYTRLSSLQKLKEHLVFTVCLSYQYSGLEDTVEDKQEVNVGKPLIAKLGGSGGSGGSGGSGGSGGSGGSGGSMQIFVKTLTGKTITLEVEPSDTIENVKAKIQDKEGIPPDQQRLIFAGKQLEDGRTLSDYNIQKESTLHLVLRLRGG
Sequence of FL hMALT1 enzyme (Q9UDY8 whole entry): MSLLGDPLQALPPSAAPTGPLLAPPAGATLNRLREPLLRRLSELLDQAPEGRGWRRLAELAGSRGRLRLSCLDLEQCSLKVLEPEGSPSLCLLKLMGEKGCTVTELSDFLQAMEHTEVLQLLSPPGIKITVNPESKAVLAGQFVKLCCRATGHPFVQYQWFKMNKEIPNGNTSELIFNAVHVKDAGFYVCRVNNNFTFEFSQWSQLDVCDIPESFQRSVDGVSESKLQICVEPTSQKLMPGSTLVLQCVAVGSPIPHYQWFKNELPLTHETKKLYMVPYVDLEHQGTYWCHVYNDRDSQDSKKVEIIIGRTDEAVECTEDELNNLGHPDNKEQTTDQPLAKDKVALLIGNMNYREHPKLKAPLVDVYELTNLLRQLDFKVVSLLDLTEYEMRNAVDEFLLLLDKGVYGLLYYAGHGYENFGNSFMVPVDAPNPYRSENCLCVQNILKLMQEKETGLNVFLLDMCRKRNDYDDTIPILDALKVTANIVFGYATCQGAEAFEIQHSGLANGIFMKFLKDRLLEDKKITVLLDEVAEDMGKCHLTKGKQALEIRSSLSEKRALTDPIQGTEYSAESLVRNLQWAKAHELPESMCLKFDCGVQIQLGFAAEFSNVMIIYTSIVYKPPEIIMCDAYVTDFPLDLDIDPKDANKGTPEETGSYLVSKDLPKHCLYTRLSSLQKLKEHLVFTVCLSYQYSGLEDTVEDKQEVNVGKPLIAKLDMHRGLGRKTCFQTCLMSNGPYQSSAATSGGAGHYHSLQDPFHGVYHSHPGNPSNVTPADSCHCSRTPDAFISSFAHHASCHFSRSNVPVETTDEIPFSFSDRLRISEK

One may read the IC50 as the concentration needed to halve the response being measured. `C[C@@H]1CN(C(=O)Nc2cnc(-n3nccn3)c(Cl)c2)c2cncc(Br)c2N1C` [Example 26, (R)-8-Bromo-N-(5-chloro-6-(2H-1,2,3-triazol-2-yl)pyridin-3-yl)-1.2-dimethyl-2,3-dihydropyrido[3,4-b]pyrazine-4 (1H)-carboxamide]: the IC50 in assay [1] was 800 nM; in assay [2], 110 nM; in assay [3] (Homo sapiens, Jurkat, 48 h), 1300 nM.
Turning to `CC1(C)CN(C(=O)Nc2cnc(-n3nccn3)c(C(F)(F)F)c2)c2cccc(Br)c2O1` [Example 23, N-(6-(2H-1,2,3-Triazol-2-yl)-5-(trifluoromethyl)pyridin-3-yl)-8-bromo-2,2-dimethyl-2,3-dihydro-4H-benzo[b][1,4]oxazine-4-carboxamide], the IC50 was 860 nM in assay [1]; 110 nM in assay [2]; 290 nM in assay [3] (Homo sapiens, Jurkat, 48 h).
The like results for `CC1(C)CN(C(=O)Nc2cnc(-n3nccn3)c(Cl)c2)c2cncc(Br)c2O1` [Example 19, 8-Bromo-N-(5-chloro-6-(2H-1,2,3-triazol-2-yl)pyridin-3-yl)-2,2-dimethyl-2,3-dihydro-4H-pyrido[4,3-b][1,4]oxazine-4-carboxamide] were, in that order, 730 nM, 150 nM and 1100 nM.
The like results for `O=C(Nc1cnc(-n2nccn2)c(Cl)c1)N1CC(C(F)(F)F)Oc2c(Br)cncc21` (single isomer, unassigned) [Example 40, 8-Bromo-N-(5-chloro-6-(2H-1,2,3-triazol-2-yl)pyridin-3-yl)-2-(trifluoromethyl)-2,3-dihydro-4H-pyrido[4,3-b][1,4]oxazine-4-carboxamide] were, in that order, 340 nM, 60 nM and 300 nM.
In the case of `CC1(C#N)CN(C(=O)Nc2cnc(-n3nccn3)c(Cl)c2)c2cccc(Br)c2O1` (stereo not shown) [Example 18, 8-Bromo-N-(5-chloro-6-(2H-1,2,3-triazol-2-yl)pyridin-3-yl)-2-cyano-2-methyl-2,3-dihydro-4H-benzo[b][1,4]oxazine-4-carboxamide], the half-inhibitory concentration (IC50) is 850 nM in assay [1]; 190 nM in assay [2]; 1900 nM in assay [3] (Homo sapiens, Jurkat, 48 h).
`Cc1ncc2c(c1Br)OCCN2C(=O)Nc1cnc(-n2nccn2)c(Cl)c1` [Example 41, 8-Bromo-N-(5-chloro-6-(2H-1,2,3-triazol-2-yl)pyridin-3-yl)-7-methyl-2,3-dihydro-4H-pyrido[4,3-b][1,4]oxazine-4-carboxamide]: the IC50 in assay [1] is 3900 nM; in assay [2], 1400 nM; in assay [3] (Homo sapiens, Jurkat, 48 h), more than 10000 nM.
As to `CC[C@@H]1CN(C(=O)Nc2cnc(-n3nccn3)c(Cl)c2)c2cncc(Br)c2N1C` [Example 34, (R)-8-Bromo-N-(5-chloro-6-(2H-1,2,3-triazol-2-yl)pyridin-3-yl)-2-ethyl-1-methyl-2,3-dihydropyrido[3,4-b]pyrazine-4 (1H)-carboxamide], the IC50 was 970 nM in assay [1]; 50 nM in assay [2]; 290 nM in assay [3] (Homo sapiens, Jurkat, 48 h).
Regarding `CC(C)[C@@H]1CN(C(=O)Nc2cnc(-n3nccn3)c(Cl)c2)c2cncc(Br)c2N1C` [Example 35, (R)-8-Bromo-N-(5-chloro-6-(2H-1,2,3-triazol-2-yl)pyridin-3-yl)-2-isopropyl-1-methyl-2,3-dihydropyrido[3,4-b]pyrazine-4 (1H)-carboxamide], the IC50 in assay [1] turned out to be 730 nM; in assay [2], 60 nM; in assay [3] (Homo sapiens, Jurkat, 48 h), 170 nM.
The matching figures for `CC1(C)CN(C(=O)Nc2cnc(-n3nccn3)c(Cl)c2)c2cncc(Cl)c2O1` [Example 32, 8-Chloro-N-(5-chloro-6-(2H-1,2,3-triazol-2-yl)pyridin-3-yl)-2,2-dimethyl-2,3-dihydro-4H-pyrido[4,3-b][1,4]oxazine-4-carboxamide]: 1800 nM, 120 nM and 1200 nM.
With `Cc1ncc2c(c1Br)OC(C(F)(F)F)CN2C(=O)Nc1cnc(-n2nccn2)c(Cl)c1` (single isomer, unassigned) [Example 43, 8-Bromo-N-(5-chloro-6-(2H-1,2,3-triazol-2-yl)pyridin-3-yl)-7-methyl-2-(trifluoromethyl)-2,3-dihydro-4H-pyrido[4,3-b][1,4]oxazine-4-carboxamide], the IC50 in assay [2] came out at 60 nM; in assay [3] (Homo sapiens, Jurkat, 48 h), 1400 nM.
As to `O=C(Nc1cnc(-n2nccn2)c(Cl)c1)N1CCOc2c(Br)cncc21` [Example 21, 8-Bromo-N-(5-chloro-6-(2H-1,2,3-triazol-2-yl)pyridin-3-yl)-2,3-dihydro-4H-pyrido[4,3-b][1,4]oxazine-4-carboxamide], the IC50 was 2300 nM in assay [1]; more than 3000 nM in assay [2]; more than 10000 nM in assay [3] (Homo sapiens, Jurkat, 48 h).
As for `CC1CN(C(=O)Nc2cnc(-n3nccn3)c(Cl)c2)c2cncc(Br)c2O1` (stereo not shown) [Example 30, 8-Bromo-N-(5-chloro-6-(2H-1,2,3-triazol-2-yl)pyridin-3-yl)-2-methyl-2,3-dihydro-4H-pyrido[4,3-b][1,4]oxazine-4-carboxamide], the IC50 in assay [1] turned out to be 1500 nM; in assay [2], 1500 nM; in assay [3] (Homo sapiens, Jurkat, 48 h), 420 nM.
With `N#CC1CN(C(=O)Nc2cnc(-n3nccn3)c(C(F)(F)F)c2)c2cccc(Br)c2O1` (stereo not shown) [Example 6, N-(6-(2H-1,2,3-Triazol-2-yl)-5-(trifluoromethyl)pyridin-3-yl)-8-bromo-2-cyano-2,3-dihydro-4H-benzo[b][1,4]oxazine-4-carboxamide], the IC50 in assay [1] is 700 nM; in assay [2], 100 nM; in assay [3] (Homo sapiens, Jurkat, 48 h), 2100 nM.
Consider `CC(C)C1CN(C(=O)Nc2cnc(-n3nccn3)c(Cl)c2)c2cncc(Br)c2O1` (single isomer, unassigned) [Example 48, 8-Bromo-N-(5-chloro-6-(2H-1,2,3-triazol-2-yl)pyridin-3-yl)-2-isopropyl-2,3-dihydro-4H-pyrido[4,3-b][1,4]oxazine-4-carboxamide], for which the figures for the IC50 in assay [2] and in assay [3] (48 hours) were 80 nM and more than 10000 nM, respectively.
